# Test results as given in patent publication US10729659B2, “Nanogel-mediated drug delivery” (The Cleveland Clinic Foundation, priority 2012, dated 2020).
# Tests used:
# [1] = DAC stability in cell culture media; type: physicochemical; conditions: 50 μg/mL, DMEM with 15% FBS, 37° C.
# Method: Samples were incubated as 2 mL aliquots at 37° C., collected at various time points and lyophilized. To extract DAC from lyophilized samples 3 mL of methanol was added and kept on orbital rotating shaker at 100 rpm in cold room overnight.
# DAC was extracted from lyophilized samples by adding 3 mL of methanol and kept on an orbital rotating shaker at 100 rpm in cold room overnight.
# [2] = cited from earlier work
# DNMT1 = target: T1, DNMT1 (Homo sapiens, UniProt P26358); assay: Western blot of DNMT1 depletion in MCF-7/Adr cells; type: cell-based
# T1 construct: Whole cell lysates were collected at the end of each time point and western blot was done for the expression of DNMT1; endogenous in cells; host or cells: MCF-7/Adr cells
# T1 sequence (P26358 whole entry): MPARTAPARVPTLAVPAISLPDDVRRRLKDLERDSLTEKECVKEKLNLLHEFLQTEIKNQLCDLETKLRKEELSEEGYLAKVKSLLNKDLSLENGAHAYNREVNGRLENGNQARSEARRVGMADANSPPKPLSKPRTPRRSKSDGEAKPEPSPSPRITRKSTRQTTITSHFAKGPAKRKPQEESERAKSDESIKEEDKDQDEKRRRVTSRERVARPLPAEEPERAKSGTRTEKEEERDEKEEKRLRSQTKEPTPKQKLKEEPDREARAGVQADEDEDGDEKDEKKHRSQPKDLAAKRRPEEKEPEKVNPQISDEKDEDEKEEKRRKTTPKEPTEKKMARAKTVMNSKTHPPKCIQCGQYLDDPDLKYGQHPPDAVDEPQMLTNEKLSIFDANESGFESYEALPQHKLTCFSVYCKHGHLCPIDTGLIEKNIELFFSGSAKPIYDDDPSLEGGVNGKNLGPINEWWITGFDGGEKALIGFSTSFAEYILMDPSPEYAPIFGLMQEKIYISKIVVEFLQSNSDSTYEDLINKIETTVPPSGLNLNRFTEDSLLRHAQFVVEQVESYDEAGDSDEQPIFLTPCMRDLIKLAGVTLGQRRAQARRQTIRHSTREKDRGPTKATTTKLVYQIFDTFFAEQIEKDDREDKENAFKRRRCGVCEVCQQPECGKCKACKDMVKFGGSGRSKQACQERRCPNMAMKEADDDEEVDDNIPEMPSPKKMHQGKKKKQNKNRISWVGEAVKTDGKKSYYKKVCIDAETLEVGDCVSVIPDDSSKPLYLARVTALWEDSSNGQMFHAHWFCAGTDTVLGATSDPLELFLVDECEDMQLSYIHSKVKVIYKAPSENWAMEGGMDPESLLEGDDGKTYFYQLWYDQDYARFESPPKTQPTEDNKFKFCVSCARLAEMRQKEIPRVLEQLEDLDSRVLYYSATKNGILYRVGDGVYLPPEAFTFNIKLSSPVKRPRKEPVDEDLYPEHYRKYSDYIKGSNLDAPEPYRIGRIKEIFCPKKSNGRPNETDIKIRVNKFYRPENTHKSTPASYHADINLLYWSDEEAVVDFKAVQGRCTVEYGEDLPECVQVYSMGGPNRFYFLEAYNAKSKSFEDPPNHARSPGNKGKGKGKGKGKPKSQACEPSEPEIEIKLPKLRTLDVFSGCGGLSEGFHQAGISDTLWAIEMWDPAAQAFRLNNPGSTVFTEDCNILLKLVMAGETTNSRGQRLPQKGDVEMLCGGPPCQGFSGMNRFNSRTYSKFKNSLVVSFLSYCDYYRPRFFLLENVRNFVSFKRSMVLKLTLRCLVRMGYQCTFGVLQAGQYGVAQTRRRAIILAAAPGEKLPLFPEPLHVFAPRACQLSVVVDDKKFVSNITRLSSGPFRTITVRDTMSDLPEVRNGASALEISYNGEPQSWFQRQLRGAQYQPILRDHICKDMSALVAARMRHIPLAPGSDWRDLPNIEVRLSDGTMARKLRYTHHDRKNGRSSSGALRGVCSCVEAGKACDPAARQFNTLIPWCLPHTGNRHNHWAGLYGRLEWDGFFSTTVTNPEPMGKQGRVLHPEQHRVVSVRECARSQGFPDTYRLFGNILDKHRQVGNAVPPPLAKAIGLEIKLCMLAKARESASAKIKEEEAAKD
# Method: Whole cell lysates, were made by lysing 1×10^6 treated or untreated cells, with RIPA buffer (Sigma-Aldrich, St. Louis, Mo.) containing 1× protease inhibitor cocktail (Calbiochem, Gibbstown, N.J.). Lysates were collected by centrifugation at 14,000 rpm for 15 min Protein concentration was determined by a bicinchoninic acid (BCA) assay kit (Pierce, Rockford, Ill.). 20-40 μg proteins of cell lysates were electrophoresed through 13.5% SD Spolyacrylamide gel or 4-15% linear pre-cast polyacrylamide gradient gel (Bio-Rad Laboratories, Hercules, Calif.) and transferred to polyvinylidene difluoride (PVDF) membranes (GE Healthcare Bio-sciences, corp., Piscataway, N.J.). The blots were probed for mouse monoclonal p21 (Cell Signaling Technology, Inc., Danvers, Mass.), mouse monoclonal DNMT1 (Abcam Inc., Cambridge, Mass.), and mouse monoclonal anti-actin (Sigma-Aldrich, St. Louis, Mo.). For detection of bound antibody, PVDF membrane was incubated with horse radish—tagged, goat anti-mouse antibody. After incubation membrane was washed with TBST, and stained with enhanced chemiluminescence (ECL) reagent or ECL plus reagent (GE Healthcare Bio-sciences, corp., Piscataway, N.J.) according to manufacturer protocol. […]
# MCF-7/Adr cells [3] = assay: Cellular uptake of dox; type: cell-based, human; conditions: DAC 50 ng/mL 24 h, then dox 1 μg/mL; 15 min to 12 h
# Method: Drug resistant breast cancer cells were seeded in 24 well plates (1.2×10^6 cells/well). Post 48 h seeding, cells were pre-treated with DAC (50 ng/mL; 24 h); and then incubated with fixed concentration of dox (1 μg/mL) for indicated time points. Post drug incubation cell lysates in RIPA buffer was collected and lyophilized. Dox was extracted from lyophilized cell lysates using methanol as the solvent and analyzed by HPLC.
# [4] = cited from earlier work; remark: listed apart in the source
# [5] = test system: MCF-7/Adr xenograft tumor; assay: In vivo anti-tumor efficacy, drug-resistant breast cancer model; parameters: species or system athymic nude mice; conditions: single intravenous dose 15 mg/kg; vs control nanogel, DAC in solution
# Method: A murine drug-resistant breast cancer model (MCF-7/ADR) was used to investigate the anti-tumor efficacy of DAC nanogels. To establish tumors, 1×10^6 MCF-7/ADR cells were suspended in 100 μL of matrigel (BD biosciences San Jose, Calif.) and injected in the mammary fat pad via a 27 G ½ gauge needle. Tumor nodules were allowed to grow to about 300 mm3 prior to receiving DAC nanogels (drug dose 15 mg/kg) or its respective controls (DAC in solution or Control Nanogels) intravenously. Post single treatment, tumor dimensions were measured with a digital caliper at regular time intervals and the tumor volume was calculated using the formula [length×(width)^2]/2. […] Data were expressed as mean±SEM (n=3 to 6). Variances in tumor growth were determined using one-way ANOVA test followed by Tukey test using GraphPad Prism version 4.0 for Windows (p<0.05).
# In vivo anti-tumor efficacy of DAC nanogels in athymic nude mice bearing MCF-7/Adr xenograft tumor: To establish tumors, 1×10^6 MCF-7/Adr cells were suspended in 100 μL of matrigel (BD biosciences San Jose, Calif.) and injected in the mammary fat pad via a 27 G ½ gauge needle. […] Tumor dimensions were measured with a digital caliper at regular time interval and the tumor volume was calculated using the formula [length×(width)2]/2. Data were expressed as mean±SEM (n=3 to 6). […]
# MCF-7/Adr cells [6] = assay: Cell viability assay, DAC solution vs DAC nanogel; type: cell-based; conditions: Homo sapiens, NCI/ADR-RES, read-out: IC50 value at day 12 post drug treatment
# Method: Cytotoxicity of DAC in solution vs. DAC loaded nanogel was compared at day 5, 10 or 12 post drug additions in drug resistant cells. In a typical experiment; cells were seeded at 3000 cells/well in 96 well plates. 24 h post seeding, 0.1 mL cell culture media containing different concentrations of DAC solution or DAC nanogel was added and incubated for 3 d. Post incubation; cells were washed with 1×-DPBS and then replaced with drug free medium at every 48 h until cell viability was measured via an MTS assay kit (Promega CellTiter 96 AQueous Promega, Madison, Wis.). The effects of the drug on cell proliferation were calculated as the percentage cell growth vs. growth of control cells that received no drug treatment.
# Cytotoxicity of DAC in solution vs. different DAC loaded nanogel formulations was compared at day 5, 10 or 12 post drug additions in drug resistant cells. In a typical experiment, cells were seeded at 3000 cells/well in 96 well plates. Twenty four hr post seeding, 0.1 mL cell culture media containing different concentrations of DAC solution or DAC nanogel was added and incubated for 3 d. […] Cell viability was measured using MTS (Promega CellTiter 96 AQueous Promega, Madison, Wis.). The effects of the drug on cell proliferation were calculated as the percentage cell growth vs. growth of control cells that received no drug treatment.
# [7] = rat model; cited from earlier work
# P-gp = assay: Western blot of P-gp expression in MCF-7/Adr cells; type: cell-based, human
# Excerpt: Proteins ([…]) from DAC treated or untreated cell lysates in RIPA buffer were probed for mouse monoclonal P-glycoprotein (calbiochem) and mouse anti-actin (Sigma-Aldrich, St. Louis, Mo.). Blotting and detection of the indicated proteins were done as per standard western blot protocol.
structure (smiles),measurement,setting,value
"Nc1ncn([C@H]2C[C@H](O)[C@@H](CO)O2)c(=O)n1 [DAC, 5-aza-2′-deoxycytidine]",No detectable levels of DAC at,[1],8 h
same,DAC degraded within an hour,[1]; 1 h,60%
same,In vivo half life,[2],10 to 30 min
same,Plasma protein binding,[2]; in vivo,poor plasma protein binding
same,Duration of DNMT1 depletion,DNMT1; 50 ng/mL,24 h
same,DNMT1 levels vs untreated,"DNMT1; 2, 3 and 5 days post treatment",No difference in DNMT1 levels
same,Uptake of dox in DAC pre-treated cells vs dox alone,MCF-7/Adr cells [3],higher increase in uptake of dox
same,Half-life,[4]; in humans,10 to 35 min
same,Clearance,[4]; in vivo,very high clearance
same,Tumor growth / tumor size,[5],not different
same,IC50,MCF-7/Adr cells [6],0.434 µg/mL
same,Carcinogenicity,[7],has not
same,Decrease in P-gp protein expression vs untreated cells,P-gp; day 1,45%
same,P-gp expression,P-gp; day 3,returned to normal levels
